Measurements published in patent publication US12385042B2, “Cell-penetrating peptides” (VECTIOPEP OÜ, priority 2019, dated 2025).

test system: U87 MG-luc2 human glioma cells, stably expressing luc2; experiment: Luciferase gene downregulation by CPP/siRNA (siLuc2) complexes; assay type: cell-based; conditions: CPP/siRNA complexes, siRNA against luciferase
Procedure: For assessing the siRNA mediated RNAi, CHO-GFP or U87-luc2 cells (5×10^5 cells per well) were seeded on a 24-well plate a day prior to the experiment and grown in serum containing media. On experiment day, prior to adding pre-formed complexes ( 1/10th of the final volume per well), media was replaced with fresh serum containing medium.
For complex formation, peptide was mixed with luc2 siRNA (sense 5′-[…]-3′ (SEQ ID NO:7), antisense 5′-[…] 3′ (SEQ ID NO:8), Metabion, Germany) or with siRNA against GFP (5′-[…] (SEQ ID NO:9), 3′-[…] (SEQ ID NO:10)) in mQ water (pH 5.3-6.3) using peptide to siRNA molar ratios (MR is the ratio of peptide to siRNA) […] and incubated at RT for 1 h. For siLuc2, the final concentration in media was 25 nM and for siGFP 100 nM. Cells were co-incubated with complexes for 4 h (37° C., 5% CO2), thereafter fresh serum containing media was added and followed by further incubation (20 h for siLuc2 or 44 h for siGFP complexes). Luciferase gene downregulation was measured from cell lysates with Promega luciferase assay system (Promega, Sweden) in combination with GLOMAX 96 microplate luminometer equipped with GLOMAX 1.9.2 software (Promega). GFP was measured after treatment from cell lysates on black 96-well plates by measuring total fluorescence (Symergy MX, BioTek Instruments, USA equipped with Gen5 1.10 software). The results were normalized to the protein content of each sample (DC Protein Assay, BioRad, USA).
Luciferase activity was determined as described in previous paragraph.
For determination of pH dependency on the transfection efficiency, complexes were formed at MR30, incubated and diluted before addition to cells to obtain siRNA final concentration 10 nM in transfection media. HEPES buffer supplemented with 10% FBS was used as transfection media. Complexes were co-incubated with cells for 4 h and then media was replaced with cell growth media. After further 20 h incubation cells were lysed and analyzed as described previously.
The experiment was carried out in serum containing media (10% FBS). CPP/siRNA complexes were formed at different molar ratios with siRNA concentration kept constant (50 nM in transfection media). Luminescence from luciferin-luciferase reaction was measured at 24 hours post-treatment from cell lysate. Results were normalized to protein content and luminescence values from untreated cells (100%).

| Substance | Red (%) (reduction, based on remaining luminescence on U87 cells post-treatment) |
| --- | --- |
| HHHHHHGO^eILLKALKALAKAIL [NF706, C22 fatty acid on N-terminus; C-terminally amidated] | 59 |
| HHHHHHYHHGO^eILLKALKALAKAIL [NF721, group H8; C18 saturated fatty acid on N-terminus; C-terminally amidated] | 55 |
| HHHHHHYHHGO^eILLKALKALAKAIL [NF722, group H8; C22 saturated fatty acid on N-terminus; C-terminally amidated] | 45 |
| HHHHHHYLLGO^eILLKALKALAKAIL [NF707, group H6^2 (histidines before tyrosine); C18 fatty acid on N-terminus; C-terminally amidated] | 70 |
| HHHHHHYLLGO^eILLKALKALAKAIL [NF708, group H6^2 (histidines before tyrosine); C20 fatty acid on N-terminus; C-terminally amidated] | 71 |
| HHHHHHYLLGO^eILLKALKALAKAIL [NF709, group H6^2 (histidines before tyrosine); C22 fatty acid on N-terminus; C-terminally amidated] | 55 |
| HHHHHYHHGO^eILLKALKALAKAIL [NF719, group H7; C18 saturated fatty acid on N-terminus; C-terminally amidated] | 39 |
| HHHHHYHHGO^eILLKALKALAKAIL [NF723, group H7; C20 saturated fatty acid on N-terminus; C-terminally amidated] | 49 |
| HHHHHYHHGO^eILLKALKALAKAIL [NF724, group H7; C22 saturated fatty acid on N-terminus; C-terminally amidated] | 40 |
| HHHHYHHGO^eILLKALKALAKAIL [NF701, group H6; C10 (decanoyl) fatty acid on N-terminus; C-terminally amidated] | 20 |
| HHHHYHHGO^eILLKALKALAKAIL [NF711, group H6; C16 saturated fatty acid on N-terminus; C-terminally amidated] | 35 |
| HHHYHHGO^eILLKALKALAKAIL [NF715, group H5; C18 saturated fatty acid on N-terminus; C-terminally amidated] | 62 |
| HHHYHHGO^eILLKALKALAKAIL [NF718, group H5; C22 saturated fatty acid on N-terminus; C-terminally amidated] | 75 |
| HHYHHGO^eILLKALKALAKAIL [NF712, group H4; C20 saturated fatty acid on N-terminus; C-terminally amidated] | 83 |
| HHYHHGO^eILLKALKALAKAIL [NF713, group H4; C22 saturated fatty acid on N-terminus; C-terminally amidated] | 47 |
| HHYHHGO^eILLKALKALAKAIL [NF717, group H4; C16 saturated fatty acid on N-terminus; C-terminally amidated] | 43 |
| HYHHGO^eILLKALKALAKAIL [NF726, group H3; C20 saturated fatty acid on N-terminus; C-terminally amidated] | 50 |
